Where a name gives a salt, the structure may show the parent alone. Read-outs that look alike come from different tables or passages of the source.
Columns and labels:
human NTCP [1] = target: T1, human NTCP (Homo sapiens, UniProt Q14973); test: Screening taurocholate uptake assay (96-well, [14C]taurocholate, 10 µM drug)
T1 sequence (Q14973 1-349): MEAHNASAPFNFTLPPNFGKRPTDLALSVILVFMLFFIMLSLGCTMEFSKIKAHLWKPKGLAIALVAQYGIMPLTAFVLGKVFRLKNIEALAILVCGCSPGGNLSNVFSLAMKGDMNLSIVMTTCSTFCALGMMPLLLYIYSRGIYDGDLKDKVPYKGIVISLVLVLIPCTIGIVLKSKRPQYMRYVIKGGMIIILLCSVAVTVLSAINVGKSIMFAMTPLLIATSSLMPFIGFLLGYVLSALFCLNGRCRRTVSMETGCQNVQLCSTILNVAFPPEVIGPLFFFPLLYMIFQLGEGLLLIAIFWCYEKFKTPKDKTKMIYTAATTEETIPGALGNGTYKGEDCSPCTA

human NTCP [2] = target: T1, human NTCP; test: Screening fluorescent competitive Myrcludex B-FITC binding assay (96-well, 10 µM drug)
[3] = combined ranking from functional and binding screening assays
[4] = screen, 10 µM drug, taurocholate uptake
[5] = screen, 10 µM drug, Myrcludex B-FITC binding
[6] = Prestwick library screen, 10 µM drug, B-score of taurocholate uptake
[7] = combined ranking from functional and binding assay B-scores
[8] = Prestwick library screen, 10 µM drug, B-score of Myrcludex B-FITC binding
[9] = Prestwick library screen, taurocholate uptake, 10 µM drug
[10] = ranking score beside the functional and binding assay B-scores of the screen
[11] = Prestwick library screen, Myrcludex B-FITC binding, 10 µM drug

`C[C@]12CCC(=O)C=C1CC[C@@H]1[C@@H]2C(=O)C[C@@]2(C)[C@H]1CC[C@]2(O)C(=O)CO` [Cortisone] was tested, and the Ranking score (human NTCP [1]; [3]) was 405.336, the B-score functional assay (human NTCP [1]; [4]) was -0.212 and the B-score binding assay (human NTCP [2]; [5]) was -0.62.
Work on `O=C(O)c1cc(=O)c2c(OCC(O)COc3cccc4oc(C(=O)O)cc(=O)c34)cccc2o1` [Cromolyn disodium salt] yielded a B-score functional assay (human NTCP [1]; [6]) of 0.688, a Ranking score (human NTCP [1]; [7]) of 903.754 and a B-score binding assay (human NTCP [2]; [8]) of 0.29.
With `CN(C)CCC=C1c2ccccc2C=Cc2ccccc21` [Cyclobenzaprine hydrochloride] the B-score functional assay (human NTCP [1]; [9]) was -0.009, the Ranking score (human NTCP [1]; [10]) was 718.919 and the B-score binding assay (human NTCP [2]; [11]) was 0.264.
With `NS(=O)(=O)c1cc2c(cc1Cl)NC(CC1CCCC1)NS2(=O)=O` (stereo not drawn) [Cyclopenthiazide] the B-score functional assay (human NTCP [1]; [9]) was -0.118, the Ranking score (human NTCP [1]; [10]) was 797.145 and the B-score binding assay (human NTCP [2]; [11]) was 2.395.
Work on `O=P1(N(CCCl)CCCl)NCCCO1` (stereo not drawn) [Cyclophosphamide] yielded a B-score functional assay (human NTCP [1]) of 0.493, a Ranking score (human NTCP [1]) of 990.921 and a B-score binding assay (human NTCP [2]) of 1.227.
Compound `CN1CCC(=C2c3ccccc3C=Cc3ccccc32)CC1` [Cyproheptadine hydrochloride] has a B-score functional assay (human NTCP [1]; [9]) of -0.111, a Ranking score (human NTCP [1]; [10]) of 690.33 and a B-score binding assay (human NTCP [2]; [11]) of 0.492.
`CC(=O)O[C@]1(C(C)=O)CC[C@H]2[C@@H]3C=C(Cl)C4=CC(=O)[C@@H]5C[C@@H]5[C@]4(C)[C@H]3CC[C@@]21C` [Cyproterone acetate] showed a B-score functional assay (human NTCP [1]; [9]) of -0.245, a Ranking score (human NTCP [1]; [10]) of 678.19 and a B-score binding assay (human NTCP [2]; [11]) of 0.796.
`Nc1ccn([C@@H]2O[C@H](CO)[C@@H](O)[C@@H]2O)c(=O)n1` [Cytarabine] showed a B-score functional assay (human NTCP [1]; [6]) of 0.582, a Ranking score (human NTCP [1]; [7]) of 944.957 and a B-score binding assay (human NTCP [2]; [8]) of 0.655.
Work on `N[C@@H]1CON=C1O` [D-cycloserine] yielded a B-score functional assay (human NTCP [1]; [9]) of -0.174, a Ranking score (human NTCP [1]; [10]) of 667.017 and a B-score binding assay (human NTCP [2]; [11]) of 0.464.
For `COc1ccccc1N1CCN(CCCCNC(=O)c2ccc3ccccc3c2)CC1.Cl.Cl` [DO 897/99], the Ranking score (human NTCP [1]; [3]) was 447.929, the B-score functional assay (human NTCP [1]; [4]) was -0.485 and the B-score binding assay (human NTCP [2]; [5]) was -0.125.
In the case of `CN(C)/N=N/c1[nH]cnc1C(N)=O` [Dacarbazine], the B-score functional assay (human NTCP [1]; [6]) is reported as 0.084, the Ranking score (human NTCP [1]; [7]) is reported as 928.431 and the B-score binding assay (human NTCP [2]; [8]) is reported as 1.762.
`C#C[C@]1(O)CC[C@H]2[C@@H]3CCC4=Cc5oncc5C[C@]4(C)[C@H]3CC[C@@]21C` [Danazol] was tested, and the Ranking score (human NTCP [1]; [3]) was 407.041, the B-score functional assay (human NTCP [1]; [4]) was -0.499 and the B-score binding assay (human NTCP [2]; [5]) was -0.305.
`O=C1CN(/N=C/c2ccc(-c3ccc([N+](=O)[O-])cc3)o2)C(=O)[N-]1.[Na+]` [Dantrolene sodium salt] was tested, and the Ranking score (human NTCP [1]; [3]) was 342.783, the B-score functional assay (human NTCP [1]; [4]) was -0.011 and the B-score binding assay (human NTCP [2]; [5]) was -1.319.
`NC(=O)C(c1ccccc1)(c1ccccc1)[C@@H]1CCN(CCc2ccc3c(c2)CCO3)C1` [Darifenacin hydrobromide] showed a B-score functional assay (human NTCP [1]) of 2.058, a Ranking score (human NTCP [1]) of 899.12 and a B-score binding assay (human NTCP [2]) of 0.023.
`COc1cccc2c1C(=O)c1c(O)c3c(c(O)c1C2=O)C[C@@](O)(C(C)=O)C[C@@H]3O[C@H]1C[C@H](N)[C@H](O)[C@H](C)O1` [Daunorubicin hydrochloride] was tested, and the B-score functional assay (human NTCP [1]; [9]) was -0.357, the Ranking score (human NTCP [1]; [10]) was 740.439 and the B-score binding assay (human NTCP [2]; [11]) was 6.093.
`N=C(N)N1CCc2ccccc2C1` [Debrisoquin sulfate] gave a B-score functional assay (human NTCP [1]; [6]) of 2.382, a Ranking score (human NTCP [1]; [7]) of 932.772 and a B-score binding assay (human NTCP [2]; [8]) of 0.059.
`C[N+](C)(C)CCCCCCCCCC[N+](C)(C)C` [Decamethonium bromide] gave a Ranking score (human NTCP [1]; [3]) of 433.577, a B-score functional assay (human NTCP [1]; [4]) of -0.848 and a B-score binding assay (human NTCP [2]; [5]) of 0.021.
`CC(=O)OCC(=O)[C@@]12N=C(C)O[C@@H]1C[C@H]1[C@@H]3CCC4=CC(=O)C=C[C@]4(C)[C@H]3[C@@H](O)C[C@@]12C` [Deflazacort] showed a Ranking score (human NTCP [1]; [3]) of 446.866, a B-score functional assay (human NTCP [1]; [4]) of 0.131 and a B-score binding assay (human NTCP [2]; [5]) of -0.898.
Work on `C[C@H](CCC(=O)O)[C@H]1CC[C@H]2[C@@H]3C(=O)C[C@@H]4CC(=O)CC[C@]4(C)[C@H]3CC(=O)[C@]12C` [Dehydrocholic acid] yielded a Ranking score (human NTCP [1]; [3]) of 309.304, a B-score functional assay (human NTCP [1]; [4]) of -1.555 and a B-score binding assay (human NTCP [2]; [5]) of -0.083.
`CC(=O)O[C@H]1CC[C@@]2(C)C(=CC[C@@H]3[C@@H]2CC[C@]2(C)C(=O)CC[C@@H]32)C1` [Dehydroisoandosterone 3-acetate] showed a Ranking score (human NTCP [1]; [3]) of 438.862, a B-score functional assay (human NTCP [1]; [4]) of 0.002 and a B-score binding assay (human NTCP [2]; [5]) of -0.747.
Compound `CN(CCCCCCCCCCN(C)C(=O)Oc1cccc([N+](C)(C)C)c1)C(=O)Oc1cccc([N+](C)(C)C)c1` [Demecarium bromide] has a B-score functional assay (human NTCP [1]; [6]) of 0.13, a Ranking score (human NTCP [1]; [7]) of 853.475 and a B-score binding assay (human NTCP [2]; [8]) of 0.623.

From paper PMC5681660, “Reduced hepatitis B and D viral entry using clinically applied drugs as novel inhibitors of the bile acid transporter NTCP” (Scientific Reports, 2017)
